# From patent US20110065663A1, “ANTI-CANCER COMBINATION THERAPY” (Katholieke Universiteit Leuven, K.U. Leuven R&D, priority 2008, published 2011)
# Read-outs that look alike come from different tables or passages of the source.
# Tests used:
# MCF-7/HYOR cells [1] = experiment: Tumor cell proliferation assay, M. hyorhinis-infected MCF-7 cells; assay type: cell-based, human; conditions: for IC50: Homo sapiens
# Description: Mycoplasma hyorhinis (ATCC 17981) was obtained from the American Type Culture Collection (ATCC, Manassas, Va.). The freeze-dried bacteria were reconstituted by adding 1 ml of DMEM. […] The co-culture of MCF-7 cells and M. hyorhinis was maintained under the same conditions as the uninfected MCF-7 cells. […] The cells were incubated for another 4 days, trypsinized and counted by a Coulter counter (Analis, Suarlée, Belgium).
# [2] = Conversion of nucleosides in the medium of uninfected MCF-7 cells; assay type: biochemical, human; conditions: even after 24 hours of incubation; data not shown
# Description: The TP activity of M. hyorhinis and the conversion of dThd, FdUrd, 5′DFUR and TFT to thymine, 5FU, 5FU or TF-thymine respectively were measured by high-pressure liquid chromatography (HPLC) analysis. MCF-7 and MCF-7/HYOR cells were seeded at a density of 20,000 cells/cm^2 in DMEM with 10% FBS. Four days later, the medium was collected and cleared by centrifugation at 1,400 rpm. For some experiments, the medium of MCF-7/HYOR cells was filtered using a 0.1 μm micro filter (Acrodisc syringe filter, PALL Corporation, East Hills, N.Y.) to remove the mycoplasmas from the medium. 600 μl of the medium was incubated with 200 μM of substrate (dThd, 5′DFUR, TFT or FdUrd) at 37° C. in the presence or absence of 10 μM TPi. […] Next, the samples were rapidly cooled on ice, exposed for 20 min to 200 μl ice-cold methanol and cleared by centrifugation at 15,000 rpm for 15 minutes. As a positive control, an enzyme activity assay with E. coli TP (Sigma) was performed. For this reaction, 0.025 U of TP were incubated with 200 μM of substrate in TP-buffer (10 mM Tris-HCl, pH 7.6, 1 mM EDTA, 2 mM potassium phosphate and 150 mM NaCl) in a total volume of 600 μl. Aliquots of 100 μl were withdrawn from the reaction mixture at several time points and treated as described above. The nucleosides were separated from their nucleobases on a reversed-phase RP-8 column (Merck, Darmstadt, Germany) and quantified by HPLC analysis (Aliance 2690, Waters, Milford, Mass.). The separation was performed by a linear gradient from 100% buffer B (50 mM NaH2PO4 and 5 mM heptane sulfonic acid, pH 3.2), to 20% buffer B and 80% acetonitrile. […] UV-based detection of all nucleosides was performed at 267 nm.
# MCF-7 cells = experiment: Tumor cell proliferation assay, uninfected MCF-7 cells; assay type: cell-based, human; conditions: Homo sapiens, uninfected MCF-7
# Description: MCF-7 and MCF-7/HYOR cells were seeded in 48-well plates at 10,000 cells/cm^2. […] of the test compounds (5FU, 5′DFUR, CIdUrd, BrdUrd, IdUrd and TFT) with or without 10 μM TPi were added. The cells were incubated for another 4 days, trypsinized and counted by a Coulter counter (Analis, Suarlée, Belgium). In some experiments, the antibiotic plasmocin was added one or three days before addition of the test compounds.
# M. hyorhinis TP = experiment: TP activity in the medium of MCF-7/HYOR cell cultures (HPLC, conversion of nucleoside to free base); assay type: biochemical, Mycoplasma hyorhinis; conditions: for Percent conversion of nucleoside to the free pyrimidine base in MCF-7/HYOR medium: 37° C.
# Description: The TP activity of M. hyorhinis and the conversion of dThd, FdUrd, 5′DFUR and TFT to thymine, 5FU, 5FU or TF-thymine respectively were measured by high-pressure liquid chromatography (HPLC) analysis. MCF-7 and MCF-7/HYOR cells were seeded at a density of 20,000 cells/cm^2 in DMEM with 10% FBS. Four days later, the medium was collected and cleared by centrifugation at 1,400 rpm. For some experiments, the medium of MCF-7/HYOR cells was filtered using a 0.1 μm micro filter (Acrodisc syringe filter, PALL Corporation, East Hills, N.Y.) to remove the mycoplasmas from the medium. 600 μl of the medium was incubated with 200 μM of substrate (dThd, 5′DFUR, TFT or FdUrd) at 37° C. in the presence or absence of 10 μM TPi. At different time points (i.e. 0, 15, 30, 60, 120 minutes and 16 hours), 100 μl aliquots were withdrawn, transferred to Eppendorf tubes and heated at 95° C. for 3 min. Next, the samples were rapidly cooled on ice, exposed for 20 min to 200 μl ice-cold methanol and cleared by centrifugation at 15,000 rpm for 15 minutes. As a positive control, an enzyme activity assay with E. coli TP (Sigma) was performed. For this reaction, 0.025 U of TP were incubated with 200 μM of substrate in TP-buffer (10 mM Tris-HCl, pH 7.6, 1 mM EDTA, 2 mM potassium phosphate and 150 mM NaCl) in a total volume of 600 μl. Aliquots of 100 μl were withdrawn from the reaction mixture at several time points and treated as described above. The nucleosides were separated from their nucleobases on a reversed-phase RP-8 column (Merck, Darmstadt, Germany) and quantified by HPLC analysis (Aliance 2690, Waters, Milford, Mass.). The separation was performed by a linear gradient from 100% buffer B (50 mM NaH2PO4 and 5 mM heptane sulfonic acid, pH 3.2), to 20% buffer B and 80% acetonitrile. […] UV-based detection of all nucleosides was performed at 267 nm.
# E. coli TP = target: T1, E. coli TP (Escherichia coli, UniProt P07650); experiment: Enzyme activity assay with recombinant E. coli TP (positive control); assay type: biochemical; conditions: 0.025 U TP, 200 μM substrate
# T1 construct: purchased Sigma
# Description: The TP activity of M. hyorhinis and the conversion of dThd, FdUrd, 5′DFUR and TFT to thymine, 5FU, 5FU or TF-thymine respectively were measured by high-pressure liquid chromatography (HPLC) analysis. MCF-7 and MCF-7/HYOR cells were seeded at a density of 20,000 cells/cm^2 in DMEM with 10% FBS. Four days later, the medium was collected and cleared by centrifugation at 1,400 rpm. For some experiments, the medium of MCF-7/HYOR cells was filtered using a 0.1 μm micro filter (Acrodisc syringe filter, PALL Corporation, East Hills, N.Y.) to remove the mycoplasmas from the medium. 600 μl of the medium was incubated with 200 μM of substrate (dThd, 5′DFUR, TFT or FdUrd) at 37° C. in the presence or absence of 10 μM TPi. At different time points (i.e. 0, 15, 30, 60, 120 minutes and 16 hours), 100 μl aliquots were withdrawn, transferred to Eppendorf tubes and heated at 95° C. for 3 min. Next, the samples were rapidly cooled on ice, exposed for 20 min to 200 μl ice-cold methanol and cleared by centrifugation at 15,000 rpm for 15 minutes. As a positive control, an enzyme activity assay with E. coli TP (Sigma) was performed. For this reaction, 0.025 U of TP were incubated with 200 μM of substrate in TP-buffer (10 mM Tris-HCl, pH 7.6, 1 mM EDTA, 2 mM potassium phosphate and 150 mM NaCl) in a total volume of 600 μl. Aliquots of 100 μl were withdrawn from the reaction mixture at several time points and treated as described above. The nucleosides were separated from their nucleobases on a reversed-phase RP-8 column (Merck, Darmstadt, Germany) and quantified by HPLC analysis (Aliance 2690, Waters, Milford, Mass.). The separation was performed by a linear gradient from 100% buffer B (50 mM NaH2PO4 and 5 mM heptane sulfonic acid, pH 3.2), to 20% buffer B and 80% acetonitrile. Retention times of thymine and thymidine were respectively 5.1 and 10.8 minutes. UV-based detection of all nucleosides was performed at 267 nm.
# M. hyorhinis = experiment: Staining of DNA with Hoechst 33342, growth of M. hyorhinis in MCF-7 cell cultures; assay type: cell-based, Mycoplasma hyorhinis; conditions: 10 μM; 3 days
# Description: 10,000 cells/cm^2 (MCF-7 and MCF-7/HYOR) were seeded in 8-well chamber slides (Nunc, Roskilde, Denmark). After 24 hours, 10 μM TPi was added and the cells were incubated for an additional 72 hours. Next, the cells were fixed with Carnoy's fixative (1 part glacial acetic acid to 3 parts absolute methanol) for 10 minutes, air-dried and exposed to the DNA-binding dye Hoechst 33342 (Sigma) at a concentration of 0.5 μg/ml for 15 min at room temperature. Next, the cells were washed twice with de-ionised water and covered with mounting medium (‘glycergel’, Dako, Glostrup, Denmark) and a cover slip. Fluorescence was visualised with a Leica TCS SP5 confocal microscope (Leica, Wetzlar, Germany).
# MCF-7/HYOR cell cultures = experiment: Nucleoside metabolism experiments, distribution of drug-derived radiolabel in MCF-7/HYOR cell cultures; assay type: cell-based, human; conditions: MCF-7/HYOR
# Description: Next, the cells were trypsinized, transferred to Eppendorf tubes and centrifuged for 10 minutes at 1,400 rpm. The pellet was resuspended in 1 ml absolute ice-cold methanol and kept on ice for 20 minutes. After centrifugation for 20 minutes at 13,000 rpm the pellet was washed twice with methanol, resuspended in methanol and transferred to scintillation vials containing 9 ml of Ready safe liquid scintillation reagent (‘Hisafe 3’, Perkin Elmer, Waltham, Mass.). The radioactivity was measured by a Liquid scintillation analyzer (2300 TR, Packard, Canberra, Australia). […] Next, the cells were incubated in 0.5 ml absolute ice-cold methanol and kept on ice for 20 minutes. After centrifugation for 20 minutes at 13,000 rpm, the supernatant was subjected to HPLC analysis. […] The amount of compound incorporated into nucleic acids was measured as described above.
# MCF-7/HYOR cells [3] = experiment: Nucleotide incorporation assay, MCF-7/HYOR compared with MCF-7 cells; assay type: cell-based, human; conditions: 1 μCi radiolabeled compound; FIG. 4
# Description: MCF-7 and MCF-7/HYOR cells were seeded at 10,000 cells/cm. After 48 hours, cells were treated with 1 μCi of ^3H-labeled nucleoside with or without 10 μM TPi. 16 h later, the medium was removed and the cells were washed twice with PBS. Next, the cells were trypsinized, transferred to Eppendorf tubes and centrifuged for 10 minutes at 1,400 rpm. The pellet was resuspended in 1 ml absolute ice-cold methanol and kept on ice for 20 minutes. After centrifugation for 20 minutes at 13,000 rpm the pellet was washed twice with methanol, resuspended in methanol and transferred to scintillation vials containing 9 ml of Ready safe liquid scintillation reagent (‘Hisafe 3’, Perkin Elmer, Waltham, Mass.). The radioactivity was measured by a Liquid scintillation analyzer (2300 TR, Packard, Canberra, Australia).
# T1 sequence (P07650 whole entry): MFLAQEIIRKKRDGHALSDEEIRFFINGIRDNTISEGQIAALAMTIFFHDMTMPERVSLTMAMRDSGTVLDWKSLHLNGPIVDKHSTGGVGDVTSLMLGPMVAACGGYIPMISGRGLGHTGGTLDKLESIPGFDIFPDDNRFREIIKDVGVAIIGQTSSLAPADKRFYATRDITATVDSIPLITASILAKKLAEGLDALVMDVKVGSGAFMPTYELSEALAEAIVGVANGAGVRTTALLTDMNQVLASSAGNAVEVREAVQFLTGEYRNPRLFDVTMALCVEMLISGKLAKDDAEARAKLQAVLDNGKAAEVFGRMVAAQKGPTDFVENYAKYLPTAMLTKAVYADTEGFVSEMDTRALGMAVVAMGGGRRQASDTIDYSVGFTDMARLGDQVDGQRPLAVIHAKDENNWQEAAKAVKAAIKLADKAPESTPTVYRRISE
smiles,measurement,setting,value
"C[C@H]1O[C@@H](n2cc(F)c(=O)[nH]c2=O)[C@H](O)[C@@H]1O [5′DFUR, 5-fluoro-5′-deoxyuridine]",IC50,"MCF-7/HYOR cells [1]; MCF7, read-out: IC50 MCF-7/HYOR +TPi (10 μM)",> 100 µM
same,IC50,"MCF-7/HYOR cells [1]; MCF7, read-out: IC50 MCF-7/HYOR As such",3.5 ± 0.53 µM
same,IC50,"MCF-7/HYOR cells [1]; MCF7, plasmocin 25 μg/ml, 1 day pretreatment, read-out: IC50 MCF-7/HYOR +plasmocin (25 μg/ml) 1 day prior to addition of test compounds",> 100 µM
same,IC50,"MCF-7/HYOR cells [1]; MCF7, plasmocin 25 μg/ml, 3 days pretreatment, read-out: IC50 MCF-7/HYOR +plasmocin (25 μg/ml) 3 days prior to addition of test compounds",> 100 µM
same,Ratio (1)/(2) MCF-7/HYOR,MCF-7/HYOR cells [1]; IC50 in the absence of TPi to IC50 in the presence of TPi,<0.035
same,Conversion in the medium of uninfected MCF-7 cells,[2],no conversion
same,IC50,"MCF-7 cells; MCF7, 96 h, no TPi, 4 days, read-out: IC50 MCF-7 As such",> 100 µM
same,IC50,"MCF-7 cells; MCF7, with 10 μM TPi, read-out: IC50 MCF-7 +TPi (10 μM)",> 100 µM
same,Percent conversion of nucleoside to the free pyrimidine base in MCF-7/HYOR medium,"M. hyorhinis TP; 2 hours, 200 μM substrate",5%
same,Percent conversion of nucleoside to the free pyrimidine base in MCF-7/HYOR medium,"M. hyorhinis TP; 16 hours, 200 μM substrate",22%
same,"Percent conversion of nucleoside to the free pyrimidine base, recombinant E. coli TP",E. coli TP; 2 hours,26%
same,"Percent conversion of nucleoside to the free pyrimidine base, recombinant E. coli TP",E. coli TP; 16 hours,64%
"Cl.N=C1CCCN1Cc1[nH]c(=O)[nH]c(=O)c1Cl [TPi, 5-chloro-6-(1 [2-iminopyrrolidinyl]methyl)uracil hydrochloride]","Inhibition of conversion of dThd, TFT, FdUrd and 5′DFUR to their free bases in MCF-7/HYOR culture medium","M. hyorhinis TP; 10 μM TPi, 200 μM substrate",completely inhibited
same,Effect on the growth of M. hyorhinis in MCF-7 cell cultures,M. hyorhinis,not inhibitory
"Cc1cn([C@H]2C[C@H](O)[C@@H](CO)O2)c(=O)[nH]c1=O [dThd, thymidine]","% of drug-derived radiolabel, In medium, Base","MCF-7/HYOR cell cultures; 1 μCi, 16 h",74.6%
same,"% of drug-derived radiolabel, In medium, Nucleoside","MCF-7/HYOR cell cultures; 1 μCi, 16 h",11.5%
same,"% of drug-derived radiolabel, In the cytosol of the cells, 5′-diphosphate","MCF-7/HYOR cell cultures; 1 μCi, 16 h",0.3%
same,"% of drug-derived radiolabel, In the cytosol of the cells, 5′-monophosphate","MCF-7/HYOR cell cultures; 1 μCi, 16 h",0.6%
same,"% of drug-derived radiolabel, In the cytosol of the cells, 5′-triphosphate","MCF-7/HYOR cell cultures; 1 μCi, 16 h",0.2%
same,"% of drug-derived radiolabel, In the cytosol of the cells, Nucleoside/nucleobase","MCF-7/HYOR cell cultures; 1 μCi, 16 h",7.5%
same,"% of drug-derived radiolabel, Incorporatio into DNA/RNA","MCF-7/HYOR cell cultures; 1 μCi, 16 h",5.3%
same,Share incorporated into the nucleic acids in the presence of TPi,MCF-7/HYOR cell cultures; in the presence of TPi,almost all
same,Reduction of incorporation into nucleic acids in infected MCF-7/HYOR cells in comparison with uninfected MCF-7 cells,MCF-7/HYOR cells [3],85 fold
same,Conversion in the medium of uninfected MCF-7 cells,[2],no conversion
same,Percent conversion of nucleoside to the free pyrimidine base in MCF-7/HYOR medium,"M. hyorhinis TP; 16 hours, 200 μM substrate",97%
same,Thymidine degraded into thymine,"M. hyorhinis TP; within 60 minutes, FIG. 3",almost all
same,"Percent conversion of nucleoside to the free pyrimidine base, recombinant E. coli TP",E. coli TP; 2 hours,82%
same,"Percent conversion of nucleoside to the free pyrimidine base, recombinant E. coli TP",E. coli TP; 16 hours,93%
